In brackets after ≈: the same amount, converted by molar mass. Square brackets hold non-standard residues; d marks the D form. Peptide text beside a SMILES is read from it. 2Nal = N[C@@H](Cc1ccc2ccccc2c1)C(=O)O; hIle = CC[C@H](C)C[C@H](N)C(=O)O; Cha = N[C@@H](CC1CCCCC1)C(=O)O
Columns and labels:
[1] = tested on: Bacillus subtilis; test: Antibacterial activity against Bacillus subtilis ATCC 23857 assessed as reduction in bacterial growth incubated for 18 hrs by CLSI-based Mueller-Hinton broth dilution method; format: functional
[2] = tested on: Klebsiella pneumoniae; test: Antibacterial activity against Klebsiella pneumoniae ATCC 700603 assessed as reduction in bacterial growth incubated for 18 hrs by CLSI-based Mueller-Hinton broth dilution method; format: functional
[3] = tested on: Acinetobacter baumannii; test: Antibacterial activity against Acinetobacter baumannii ATCC 19606 assessed as reduction in bacterial growth incubated for 18 hrs by CLSI-based Mueller-Hinton broth dilution method; format: functional
[4] = tested on: Pseudomonas aeruginosa; test: Antibacterial activity against Pseudomonas aeruginosa ATCC 27853 assessed as reduction in bacterial growth incubated for 18 hrs by CLSI-based Mueller-Hinton broth dilution method; format: functional
[5] = tested on: Escherichia coli; test: Antibacterial activity against Escherichia coli ML-35 ATCC 43837 assessed as reduction in bacterial growth incubated for 18 hrs by CLSI-based Mueller-Hinton broth dilution method; format: functional
[6] = tested on: Erythrocyte; test: Hemolytic activity in mouse erythrocyte assessed as hemolysis incubated for 1 hr by microplate reader analysis; format: toxicity, cell-based
[7] = tested on: Staphylococcus aureus; test: Antimicrobial activity against Staphylococcus aureus ATCC 25923 assessed as reduction in microbial growth incubated for 18 hrs by CLSI-based Mueller-Hinton broth dilution method; format: functional
[8] = tested on: Staphylococcus epidermidis; test: Antibacterial activity against Staphylococcus epidermidis ATCC 12228 assessed as reduction in bacterial growth incubated for 18 hrs by CLSI-based Mueller-Hinton broth dilution method; format: functional
[9] = tested on: Staphylococcus aureus; test: Antibacterial activity against methicillin-resistant Staphylococcus aureus ATCC 33591 assessed as reduction in bacterial growth incubated for 18 hrs by agar dilution method; format: functional
[10] = tested on: Enterococcus faecium; test: Antibacterial activity against vancomycin resistant Enterococcus faecium ATCC 700221 assessed as inhibition of bacterial growth incubated for 48 hrs by CLSI-based broth microdilution assay; format: functional
[11] = tested on: Escherichia coli; test: Antibacterial activity against Escherichia coli ATCC 25922 assessed as reduction in microbial growth incubated for 16 to 20 hrs by CLSI protocol based Muller Hinton broth assay; format: functional; conditions: time 16-20 hrs
[12] = tested on: Pseudomonas aeruginosa; test: Antibacterial activity against Pseudomonas aeruginosa ATCC 27853 assessed as reduction in microbial growth incubated for 16 to 20 hrs by CLSI protocol based Muller Hinton broth assay; format: functional; conditions: time 16-20 hrs
[13] = Hemolytic activity in human RBC assessed as hemolysis measured after 24 hrs; format: toxicity, cell-based, Erythrocyte; conditions: red blood cells

MIC [1]	MIC [2]	MIC [3]	MIC [4]	MIC [5]	MIC [7]	MIC [8]	Structure (SMILES)	HC10 [6]	MIC [9]	MIC [10]	MIC [11]	MIC [12]	HC50 at 24 h [13]
16 µM (≈ 22.5 µg/mL)	64 µM (≈ 90 µg/mL)	16 µM (≈ 22.5 µg/mL)	64 µM (≈ 90 µg/mL)	64 µM (≈ 90 µg/mL)	64 µM	32 µM (≈ 45 µg/mL)	CCCCCCCCCCCCCCCCC(=O)NCCCC[C@@H](NC(=O)[C@@H](NC(=O)[C@H](CCCNC(=N)N)NC(=O)[C@@H](CCCCN)NC(=O)[C@H](CC(C)C)NC(=O)[C@H](CC(C)C)NC(=O)CN)[C@@H](C)CC)C(=O)N[C@H](C(=O)N[C@@H](CC(C)C)C(=O)N[C@@H](CC(C)C)C(N)=O)[C@@H](C)O	16 µM	–	–	–	–	–
–	–	–	–	–	–	–	CC[C@H](C)[C@H](NC(=O)[C@H](Cc1ccccc1)NC(=O)[C@H](CCCCN)NC(=O)[C@H](CC(C)C)NC(=O)[C@H](CC(C)C)NC(=O)CN)C(=O)N[C@@H](CCCCN)C(=O)N[C@@H](Cc1c[nH]c2ccccc12)C(=O)N[C@@H](CC(C)C)C(=O)N[C@@H](CC(C)C)C(N)=O (H-GLLKFIKWLL-NH2)	–	7.4 µM (≈ 9.1 µg/mL)	0.8 µM (≈ 0.984 µg/mL)	22.1 µM	256 µM	0.6 µM
–	–	–	–	–	–	–	CC(C)C[C@H](NC(=O)[C@H](CC(C)C)NC(=O)[C@@H](NC(=O)[C@H](CCCCN)NC(=O)[C@H](Cc1ccc2ccccc2c1)NC(=O)[C@H](CCCNC(=N)N)NC(=O)[C@H](CCCCN)NC(=O)[C@H](CC(C)C)NC(=O)[C@H](CC(C)C)NC(=O)CN)[C@@H](C)O)C(N)=O (H-GLLKR[2Nal]KTLL-NH2)	–	85.3 µM (≈ 106 µg/mL)	28.4 µM (≈ 35.1 µg/mL)	28.4 µM	28.4 µM	> 500 µM
–	–	–	–	–	–	–	CC(C)C[C@H](NC(=O)[C@H](CC(C)C)NC(=O)[C@@H](NC(=O)[C@H](CCCCN)NC(=O)[C@H](CC1CCCCC1)NC(=O)[C@H](CCCNC(=N)N)NC(=O)[C@H](CCCCN)NC(=O)[C@H](CC(C)C)NC(=O)[C@H](CC(C)C)NC(=O)CN)[C@@H](C)O)C(N)=O (H-GLLKR[Cha]KTLL-NH2)	–	28.4 µM (≈ 33.9 µg/mL)	6 µM (≈ 7.16 µg/mL)	28.4 µM	15.8 µM	304 µM
–	–	–	–	–	–	–	CC[C@H](C)C[C@H](NC(=O)[C@H](CCCNC(=N)N)NC(=O)[C@H](CCCCN)NC(=O)[C@H](CC(C)C)NC(=O)[C@H](CC(C)C)NC(=O)CN)C(=O)N[C@@H](CCCCN)C(=O)N[C@H](C(=O)N[C@@H](CC(C)C)C(=O)N[C@@H](Cc1ccc2ccccc2c1)C(N)=O)[C@@H](C)O (H-GLLKR[hIle]KTL[2Nal]-NH2)	–	28.4 µM (≈ 35.5 µg/mL)	9.5 µM (≈ 11.9 µg/mL)	22.1 µM	9.5 µM	18 µM
–	–	–	–	–	–	–	CC[C@H](C)C[C@H](NC(=O)[C@H](CCCNC(=N)N)NC(=O)[C@H](CCCCN)NC(=O)[C@H](CC(C)C)NC(=O)[C@H](CC(C)C)NC(=O)CN)C(=O)N[C@@H](CCCCN)C(=O)N[C@H](C(=O)N[C@@H](CC(C)C)C(=O)N[C@@H](CC1CCCCC1)C(N)=O)[C@@H](C)O (H-GLLKR[hIle]KTL[Cha]-NH2)	–	28.4 µM (≈ 34.3 µg/mL)	26.3 µM (≈ 31.8 µg/mL)	12.5 µM	28.4 µM	317 µM
–	–	–	–	–	–	–	CC[C@H](C)C[C@H](NC(=O)[C@H](CCCNC(=N)N)NC(=O)[C@H](CCCCN)NC(=O)[C@H](CC(C)C)NC(=O)[C@H](CC(C)C)NC(=O)CN)C(=O)N[C@@H](CCCCN)C(=O)N[C@H](C(=O)N[C@@H](Cc1ccc2ccccc2c1)C(=O)N[C@@H](CC(C)C)C(N)=O)[C@@H](C)O (H-GLLKR[hIle]KT[2Nal]L-NH2)	–	28.4 µM (≈ 35.5 µg/mL)	8.8 µM (≈ 11 µg/mL)	15.8 µM	28.4 µM	149 µM
–	–	–	–	–	–	–	CC[C@H](C)C[C@H](NC(=O)[C@H](CCCNC(=N)N)NC(=O)[C@H](CCCCN)NC(=O)[C@H](CC(C)C)NC(=O)[C@H](CC(C)C)NC(=O)CN)C(=O)N[C@@H](CCCCN)C(=O)N[C@H](C(=O)N[C@@H](CC1CCCCC1)C(=O)N[C@@H](CC(C)C)C(N)=O)[C@@H](C)O (H-GLLKR[hIle]KT[Cha]L-NH2)	–	47.4 µM (≈ 57.2 µg/mL)	28.4 µM (≈ 34.3 µg/mL)	28.4 µM	28.4 µM	234 µM

Reference: ChEMBL document CHEMBL5608163, “Structure modification of anoplin for fighting resistant bacteria” (Eur J Med Chem, 2024)
